Values of other authors in patent publication US20210227865A1, “LOW GLYCEMIC COMPOSITION AND METHODS OF MAKING AND USING THEREOF” (Seattle Gummy Company, priority 2018, published 2021).

Key:
[1] = in vivo
[2] = for sweetness compared with sucrose (in words): relative to sucrose (table sugar)
[3] = FIG. 3 (trehalose), FIG. 4 (isomaltulose)

SMILES | GI value [1] | sweetness compared with sucrose (in words) [2] | other results
OC[C@H]1O[C@@](CO)(O[C@H]2O[C@H](CO)[C@@H](O)[C@H](O)[C@H]2O)[C@@H](O)[C@@H]1O [sucrose] | 63 | – | –
O=C(CO)[C@H](O)[C@@H](O)[C@H](O)CO [Sorbose, sorbose] | – | equivalent to sucrose in sweetness | –
O=C(CO)[C@@H](O)[C@H](O)[C@H](O)CO [fructose] | 19 | – | –
OC[C@H]1O[C@H](O[C@H]2O[C@H](CO)[C@@H](O)[C@H](O)[C@H]2O)[C@H](O)[C@@H](O)[C@@H]1O [trehalose] | – | – | effect on blood glucose levels (in words) [3]: does not cause a spike in glucose levels
O=C(CO)[C@H](O)[C@H](O)[C@H](O)CO [Psicose, psicose] | – | identical to sucrose | sweetness relative to sucrose ([2]; relative to sucrose): 70%
O=C(CO)[C@@H](O)[C@@H](O)[C@H](O)CO [Tagatose, tagatose] | – | nearly as sweet as sucrose | –
OC[C@H]1O[C@H](OC[C@H]2OC(O)(CO)[C@@H](O)[C@@H]2O)[C@H](O)[C@@H](O)[C@@H]1O (stereo partly drawn) [Isomaltulose, isomaltulose] | about 30 | – | effect on blood glucose levels (in words) [3]: does not cause a spike in glucose levels
